Where two headings read alike, the source gives them in different places.
Columns and labels:
[1] = system: PDGFR; experiment: PDGFR autophosphorylation, isolated membranes or intact Swiss 3T3 cells; assay type: biochemical; settings: read-out: IC50 (50% inhibition of phosphorylation) PDGFR
Procedure: Assay of receptor autophosphorylation in intact 3T3 cells: Confluent Swiss 3T3 cells in 24-well plates (Nunc) were incubated for 20-24 hours in serum-free DMEM. Subsequently, tyrphostins were added at concentrations ranging from 0 to 100 μM (final DMSO concentration, 0.5%) and the incubation was continued for 6-8 hours. The cells were then stimulated with 100 ng/ml PDGF-BB for 5 min at room temperature or 600 ng/ml EGF for 2.5 min on ice. The growth factor treatment was terminated by washing twice with ice-cold PBS and the cells were scraped off the wells in 60 μl lysis buffer containing 20 mM Hepes (pH 7.4), 150 mM NaCl, 1% Triton X-100, 10 mM sodium pyrophosphate, 50 mM NaF, 2 mM sodium-o-vanadate, 20 μm zinc acetate, 10 nM EDTA, 2 mM [ethylenebis(oxyethilenenitrilo)] tetraacetic acid, 1 mM phenylmethylsulfonyl fluoride, and 5 μg/ml leupeptin.
The cell lysates were clarified by centrifugation (cooled microfuge, 17,000 rpm, 15 min) and analyzed by SDS-PAGE (6.5% gels) and immunoblotting with anti-phosphotyrosine antibodies (either PY 20, ICN, and subsequently a peroxidase-coupled secondary antibody, or RC20-peroxidase conjugate, Affinity, Nottingham, United Kingdom). The blots were developed with a chemiluminescence detection system (Western Light, Tropix, or ECL, Amersham). In some experiments PDGF receptors were immunoprecipitated with PDGF-R3 or DIG-1 antibodies as described prior to the analysis by immunoblotting with anti-phosphotyrosine antibodies.
Membrane autophosphorylation assays: Membranes were prepared from confluent cultures of Swiss 3T3 cells as described. For measuring receptor autophosphorylation, 10 μg membrane protein per assay were incubated for 20 min on ice in the presence of 1.2 μg/ml EGF or 2 μg/ml PDGF, or both; 50 mM Hepes (pH 7.5); and 3 mm MnCl2 (final concentrations) in a volume of 45 μl. […] For quantification of radioactivity in electrophoresis gels, a Phospho-Imager (Molecular Dynamics, Fuji, or Bio-Rad) was used according to the instructions of the manufacturers. […]

[2] = biological target: T1, EGFR (Mus musculus, UniProt Q01279); experiment: EGFR autophosphorylation, isolated membranes or intact Swiss 3T3 cells; assay type: biochemical; settings: read-out: IC50 (50% inhibition of phosphorylation) EGFR
T1 construct: Membranes were prepared from confluent cultures of Swiss 3T3 cells; endogenous in cells; host or cells: Swiss 3T3 (obtained from E. Rozengurt, London)
Procedure: Membrane autophosphorylation assays: Membranes were prepared from confluent cultures of Swiss 3T3 cells as described [22]. For measuring receptor autophosphorylation, 10 μg membrane protein per assay were incubated for 20 min on ice in the presence of 1.2 μg/ml EGF or 2 μg/ml PDGF, or both; 50 mM Hepes (pH 7.5); and 3 mm MnCl2 (final concentrations) in a volume of 45 μl. In order to test the effects and determine the IC50 value of various tyrphostins, these were added in a volume of 0.5 μl (in DMSO; final concentration, 0.5%) 15 min before addition of the growth factors, in a range of concentrations. […] For quantification of radioactivity in electrophoresis gels, a Phospho-Imager (Molecular Dynamics, Fuji, or Bio-Rad) was used according to the instructions of the manufacturers. […]

[3] = biological target: T2, PDGF β-receptor (Sus scrofa, UniProt F1RL75); experiment: PDGF induced PDGFR autophosphorylation in intact SMC cells; assay type: cell-based; settings: porcine arterial SMC
T2 construct: PDGF-BB stimulated; immunoprecipitated with PDGF beta-receptor specific antiserum R3
Procedure: Effect of tyrphostins on PDGF induced PDGFR autophosphorylation in intact SMC cells: Subconfluent porcine arterial smooth muscle cells, cultivated in Dulbecco's modified Eagle's medium (DMEM) supplemented with 15% fetal calf serum (FCS), were synchronized for 20 hours in a medium containing 2% FCS. […] After stimulation, the cells were solubilized in Nonidet P-40 (1%) containing lysis buffer.
The analysis of PDGF p-receptor phosphorylation was performed as follows. Cell lysates were subjected to immunoprecipitation using the PDGF β-receptor specific antiserum R3 [5]. The percipitates were subjected to polyacrylamide (7.5%) gel electrophoresis in presence of sodium deducyl sulfate (SDS-PAGE) and were thereafter blotted onto a nitrocellulose membrane (Hybond C-EXTRA, Amersham). Phosphorylated proteins were detected by immunoblotting using the horseradish-peroxidase conjugated phosphotyrosine antibody RC20H (Transduction Laboratories), followed by chemoluminescence-based detection (ECL, Amersham) and autoradiography.
Detection of receptor proteins was performed as follows. Cell lysates were subjected to immunoprecipitation using the PDGF β-receptor specific antiserum R3 [5], as described above, and the percipitates washed three times and thereafter subjected to SDS-PAGE (7.5%) and blotting onto a nitrocellulose membrane (Hybond C-EXTRA, Amersham). Receptor proteins were detected by immunoblotting using the horseradish-peroxidase conjugated donkey anti-rabbit antibody (Amersham), followed by chemoluminescence-based detection (ECL, Amersham) and autoradiography.

[4] = system: porcine aortic smooth muscle cells (SMC); experiment: Inhibition of cell proliferation and recovery, porcine SMC; assay type: cell-based; settings: for inhibition at 10 µM: Sus scrofa
Procedure: Smooth muscle cells (SMC) were obtained under aseptic conditions from porcine abdominal aortas, and human internal mammary arteries (IMA). Specimens from the operating room were transferred on ice to the tissue culture room. Each artery was cut open and the endothelial surface mechanically scraped. […] The tissue fragments were then placed in an incubator at 37° C. under 9% CO2 atmosphere until SMC outgrowth was detected (typically within 3-7 days). […] For experiments testing the effect of tyrphostins on growth inhibition and recovery (see below), SMC from passages 1-3 were replated in 15 mm wells pretreated with 3 μg/cm^2 fibronectin (Biological Industries, Kibbutz Beit Haemek, Israel) at 15,000 cells/well.
Inhibition of cell proliferation and recovery: Monolayer cell growth inhibition and recovery experiments were repeated 3 or 4 times. Each experiment was performed in triplicate. […] Cultures were treated with a tyrphostin (10 μM) dissolved in 0.1% DMSO on days 1 and 3. On day 6, cultures were washed and the cells allowed to recover. Typically cells were counted on days 3 and 5 for inhibition, and on days 7, 10 and 15 for recovery, other schedules were also employed as reported below.

[5] = biological target: T3, SRC kinase (Gallus gallus, UniProt P00523, Y527F); experiment: Src kinase activity assay (immunoprecipitate from src-transformed NIH 3T3 cells); assay type: biochemical, chicken
T3 construct: expressed in transfected cells; host or cells: NIH 3T3, stably transfected (gift of S. Courtneidge, Heidelberg)
Procedure: Src kinase activity assay: src-transformed NIH 3T3 cells were grown in 24-well plates to confluency; rinsed twice with a solution containing 20 mM Tris, 0.1 mM sodium-o-vanadate, and 150 mM NaCl (pH 7.5); and lysed in 100 μl/well of lysis buffer containing 20 mM Tris (pH 8.0), 150 mM NaCl, 1% Nonidet P-40, 2.5 mM EDTA, 10 mM NaF, 1% trasylol, and 20 μm leupeptin. The lysate was clarified by centrifugation and subjected to immunoprecipitation with the anti-Src monoclonal antibody MAb 327 (Oncogene Science; 0.5 μg antibody/80 μg protein) for 1 hour at 4° C. Then, goat anti-mouse IgG (Sigma; 0.2 μg per 0.5 μg monoclonal antibody 327) was added and incubation was continued for 30 mi followed by another 40 min of incubation with 10 μl of protein A-Sepharose Cl-4B (Pharmacia). The immunoprecipitates were washed five times with the lysis buffer and twice with kinase buffer containing 40 mM Hepes (pH 7.4), 0.5 mM dithiothreitol, 5 mM MnCl2, and 0.1 mM sodium-o-vanadate. The immunoprecipitates were suspended in kinase buffer and aliquots corresponding to 40 μg of cell lysate protein were preincubated with or without tyrphostin for 15 min at 30° C. Then, the kinase reaction was performed in the presence of 2 μg of acid-treated enolase and 10 μCi of [γ-^32 P]ATP (2 μM) in a final volume of 30 μl. The reaction was terminated by addition of SDS-PAGE sample buffer (6% SDS, 30% β-mercaptoetlhanol, 40% glycerol, and 0.5 mg/ml bromophenol blue) and the incorporation of radioactivity in the enolase was analyzed by SDS-PAGE and autoradiography as well as Phosphor-Imager quantification.

T2 sequence (F1RL75 109-1181): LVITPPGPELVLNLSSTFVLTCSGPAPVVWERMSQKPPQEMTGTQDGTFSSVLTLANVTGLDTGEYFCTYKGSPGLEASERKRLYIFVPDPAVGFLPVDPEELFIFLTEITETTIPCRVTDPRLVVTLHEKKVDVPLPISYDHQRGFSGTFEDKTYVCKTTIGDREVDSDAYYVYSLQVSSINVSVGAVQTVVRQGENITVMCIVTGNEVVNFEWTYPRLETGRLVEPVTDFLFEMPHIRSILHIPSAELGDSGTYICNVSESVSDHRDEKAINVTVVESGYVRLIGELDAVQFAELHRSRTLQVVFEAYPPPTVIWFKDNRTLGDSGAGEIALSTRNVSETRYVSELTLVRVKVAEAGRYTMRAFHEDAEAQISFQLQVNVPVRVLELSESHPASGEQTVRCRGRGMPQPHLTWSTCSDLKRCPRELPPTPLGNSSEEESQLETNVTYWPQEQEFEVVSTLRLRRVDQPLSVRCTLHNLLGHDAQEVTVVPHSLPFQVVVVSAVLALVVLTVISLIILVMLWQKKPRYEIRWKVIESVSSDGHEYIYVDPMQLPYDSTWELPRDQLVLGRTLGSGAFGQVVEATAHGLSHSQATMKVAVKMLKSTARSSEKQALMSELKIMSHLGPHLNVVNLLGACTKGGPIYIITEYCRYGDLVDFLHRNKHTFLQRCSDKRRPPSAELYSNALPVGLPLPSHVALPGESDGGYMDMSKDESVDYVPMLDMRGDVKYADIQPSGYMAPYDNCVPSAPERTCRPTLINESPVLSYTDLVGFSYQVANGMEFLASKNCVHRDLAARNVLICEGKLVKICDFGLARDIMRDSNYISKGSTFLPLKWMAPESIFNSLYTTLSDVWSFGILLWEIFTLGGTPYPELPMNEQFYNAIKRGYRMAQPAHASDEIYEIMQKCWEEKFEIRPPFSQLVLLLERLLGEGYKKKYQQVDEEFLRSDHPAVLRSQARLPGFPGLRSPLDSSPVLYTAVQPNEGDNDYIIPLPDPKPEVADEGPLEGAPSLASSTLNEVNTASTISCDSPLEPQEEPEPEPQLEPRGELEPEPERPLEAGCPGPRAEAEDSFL
T1 sequence (Q01279 25-1210): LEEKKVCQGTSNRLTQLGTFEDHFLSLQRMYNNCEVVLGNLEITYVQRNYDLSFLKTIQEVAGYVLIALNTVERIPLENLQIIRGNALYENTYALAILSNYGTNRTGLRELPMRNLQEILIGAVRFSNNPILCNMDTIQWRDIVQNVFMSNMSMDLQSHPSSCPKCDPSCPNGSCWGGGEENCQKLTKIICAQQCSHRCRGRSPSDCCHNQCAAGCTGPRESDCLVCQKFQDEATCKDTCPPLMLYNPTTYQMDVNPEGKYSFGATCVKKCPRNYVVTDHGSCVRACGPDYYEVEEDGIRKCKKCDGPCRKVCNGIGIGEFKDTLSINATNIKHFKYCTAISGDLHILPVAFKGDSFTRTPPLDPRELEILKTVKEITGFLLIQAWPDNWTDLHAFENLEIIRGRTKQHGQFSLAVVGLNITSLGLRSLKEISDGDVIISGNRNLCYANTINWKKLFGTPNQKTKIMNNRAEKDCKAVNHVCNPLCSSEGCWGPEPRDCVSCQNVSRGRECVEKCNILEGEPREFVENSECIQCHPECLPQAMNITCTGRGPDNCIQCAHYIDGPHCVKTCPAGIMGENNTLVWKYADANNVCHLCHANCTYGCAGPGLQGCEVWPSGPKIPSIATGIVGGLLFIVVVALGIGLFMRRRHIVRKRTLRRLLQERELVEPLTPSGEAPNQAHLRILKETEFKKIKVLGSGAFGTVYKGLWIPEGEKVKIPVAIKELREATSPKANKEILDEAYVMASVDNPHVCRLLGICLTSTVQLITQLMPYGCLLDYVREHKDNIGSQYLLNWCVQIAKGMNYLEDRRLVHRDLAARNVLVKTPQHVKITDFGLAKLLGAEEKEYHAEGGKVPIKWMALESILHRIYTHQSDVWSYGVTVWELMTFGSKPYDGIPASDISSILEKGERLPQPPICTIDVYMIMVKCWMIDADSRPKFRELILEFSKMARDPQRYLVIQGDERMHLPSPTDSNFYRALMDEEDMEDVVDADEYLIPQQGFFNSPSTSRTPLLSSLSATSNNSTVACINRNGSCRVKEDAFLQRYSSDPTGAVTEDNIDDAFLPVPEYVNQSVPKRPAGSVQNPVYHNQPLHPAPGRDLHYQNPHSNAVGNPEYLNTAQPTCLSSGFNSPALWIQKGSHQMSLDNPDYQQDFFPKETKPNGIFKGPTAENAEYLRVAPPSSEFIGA

## Cc1cc2ncc(-c3cccs3)nc2cc1C [AG1990]
[1]
  IC50: 1000 nM
[2]
  IC50: > 30 µM
[3]
  level of PDGF β-receptor protein present in the cells: without affecting the level
[3]; tyrphostin 10 μM, 60 min preincubation, PDGF-BB 100 ng/ml
  inhibition of PDGF-BB induced PDGF β-receptor tyrosine-phosphorylation: completely inhibited
[4]; 120 h, by day 5 (day given for AG1295 and AG1992), read-out: reduction in SMC count / inhibition of SMC growth over control
  inhibition at 10 µM: 50%
[4]; Table 2, read-out: mean reduction in SMC count compared to control cells (maximal inhibition in SMC growth)
  inhibition at 10 µM: 50%
[4]; porcine SMC, cultures washed, cells allowed to recover
  reversibility of the inhibitory effect / recovery of SMC growth after washout: completely reversible
[5]
  IC50: 20 µM
